Patent US20260151403A1, “NEK7 DEGRADERS AND METHODS OF USE THEREOF” (Captor Therapeutics S.A., priority 2022, published 2026)

What was measured:
[1] = biological target: T1, [NEK7]-[compound of formula (I)]-[CRBN/DDB1] complex (Homo sapiens, UniProt Q8TDX7+Q96SW2); test: AlphaLISA dose response ternary complex formation assay; format: binding; conditions: 1 μM compound; normalized to maximum signal of Compound 2 (positive control) and DMSO background; read-out: Normalized AlphaLISA ternary complex average signal at 1 μM molecule
T1 sequence (Q8TDX7 whole entry): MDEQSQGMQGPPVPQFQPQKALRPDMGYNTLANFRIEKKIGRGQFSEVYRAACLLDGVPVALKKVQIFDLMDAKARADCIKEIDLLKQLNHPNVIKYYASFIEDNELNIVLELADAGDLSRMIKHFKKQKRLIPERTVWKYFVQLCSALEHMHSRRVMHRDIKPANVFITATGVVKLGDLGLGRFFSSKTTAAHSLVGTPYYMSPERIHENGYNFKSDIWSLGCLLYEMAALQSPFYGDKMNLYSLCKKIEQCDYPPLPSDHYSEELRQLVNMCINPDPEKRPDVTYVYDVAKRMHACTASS
T1 sequence (Q96SW2 whole entry): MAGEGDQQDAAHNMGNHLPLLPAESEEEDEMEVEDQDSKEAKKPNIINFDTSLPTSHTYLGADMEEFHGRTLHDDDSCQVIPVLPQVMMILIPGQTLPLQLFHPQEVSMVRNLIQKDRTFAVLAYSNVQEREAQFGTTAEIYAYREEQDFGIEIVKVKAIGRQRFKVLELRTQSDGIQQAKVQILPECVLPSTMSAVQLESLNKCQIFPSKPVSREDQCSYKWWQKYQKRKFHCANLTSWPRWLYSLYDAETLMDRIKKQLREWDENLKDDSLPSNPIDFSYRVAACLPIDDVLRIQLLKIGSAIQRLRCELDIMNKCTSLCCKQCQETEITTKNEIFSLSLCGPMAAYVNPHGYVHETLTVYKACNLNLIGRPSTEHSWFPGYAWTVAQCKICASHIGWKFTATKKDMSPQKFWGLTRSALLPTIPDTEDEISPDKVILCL
T1 sequence (Q16531 whole entry partner): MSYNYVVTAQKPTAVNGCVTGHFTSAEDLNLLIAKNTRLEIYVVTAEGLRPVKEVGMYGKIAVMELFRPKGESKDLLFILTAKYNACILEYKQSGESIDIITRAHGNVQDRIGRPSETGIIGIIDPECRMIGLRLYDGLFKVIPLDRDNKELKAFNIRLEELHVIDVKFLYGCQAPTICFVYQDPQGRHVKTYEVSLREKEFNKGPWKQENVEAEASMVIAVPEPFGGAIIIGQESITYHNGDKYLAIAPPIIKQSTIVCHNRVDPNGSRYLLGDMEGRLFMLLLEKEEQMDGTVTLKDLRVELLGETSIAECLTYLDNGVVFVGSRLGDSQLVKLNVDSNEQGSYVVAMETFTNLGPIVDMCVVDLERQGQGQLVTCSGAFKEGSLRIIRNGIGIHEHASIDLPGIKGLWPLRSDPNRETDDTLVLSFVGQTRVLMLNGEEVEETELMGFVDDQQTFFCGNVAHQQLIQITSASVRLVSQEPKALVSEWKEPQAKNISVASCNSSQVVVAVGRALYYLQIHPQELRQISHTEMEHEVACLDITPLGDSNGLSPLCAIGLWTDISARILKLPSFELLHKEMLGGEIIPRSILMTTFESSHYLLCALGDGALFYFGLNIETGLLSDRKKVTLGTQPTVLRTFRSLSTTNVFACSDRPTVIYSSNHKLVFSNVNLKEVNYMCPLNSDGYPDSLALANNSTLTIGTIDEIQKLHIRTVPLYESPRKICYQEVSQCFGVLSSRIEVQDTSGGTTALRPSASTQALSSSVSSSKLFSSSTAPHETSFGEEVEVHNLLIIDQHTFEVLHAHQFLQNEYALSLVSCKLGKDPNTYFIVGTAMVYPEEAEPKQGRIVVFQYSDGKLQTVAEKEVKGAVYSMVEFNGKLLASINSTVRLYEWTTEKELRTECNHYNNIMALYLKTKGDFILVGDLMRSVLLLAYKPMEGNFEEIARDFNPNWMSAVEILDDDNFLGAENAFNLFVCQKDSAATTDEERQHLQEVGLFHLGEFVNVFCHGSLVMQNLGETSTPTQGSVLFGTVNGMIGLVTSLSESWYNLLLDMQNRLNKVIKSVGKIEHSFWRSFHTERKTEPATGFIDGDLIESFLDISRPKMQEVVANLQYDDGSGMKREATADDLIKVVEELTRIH
Description: The effect of the molecular glue compounds of the invention on the formation of a ternary complex composed of [NEK7]-[compound of formula (I)]-[CRBN/DDB1] was investigated with two methods: AlphaLISA dose response assay or HTRF ternary complex assay.
Two types of protein solution were prepared: • 200 nM biotinylated NEK7, 40 μg/ml AlphaScreen Streptavidin-coated Donor Beads in HBS (10 mM HEPES, 150 mM NaCL, pH 7.4) buffer with 0.1% Tween-20 and 1 mM DTT, • 200 nM 6×His-CRBN/Strep-DDB1, 40 μg/ml AlphaLISA Anti-6×His Acceptor beads in HBS buffer with 0.1% Tween-20 and 1 mM DTT.
The prepared solutions were incubated at room temperature for 30 min and then the solution containing the donor beads was mixed with the solution containing the acceptor beads.
The tested compounds were dispensed onto a white 384-well AlphaPlate 384 SW. DMSO was backfilled to all wells, resulting in a final DMSO content of 2%. Wells containing only DMSO served as background. Next, 10 μl of solution with donor and acceptor beads was added to the wells.
The plate was sealed with transparent film and shaken using a VibroTurbulator for 60 sec at room temperature, level 3. The plate was then spun down shortly (10 s, 1000 rcf, room temperature) and incubated at 25° C. for 30 min.
The read-out was performed with PerkinElmer Enspire Multimode Plate Reader (method for AlphaLISA 384-well low volume, Filterset: λexc=680 nm, λem=615 nm).
The results were analyzed as follows: • 1) an average of luminescence for background signal was calculated and used as a negative control; • 2) average of the maximum measured luminescence for Compound 2 was calculated and used as an internal positive control; • 3) raw luminescence values were normalized against positive and negative controls; • 4) Normalized responses to Compound 2 were determined.

NEK7-HiBiT protein = NEK7-HiBiT protein (Homo sapiens, UniProt Q8TDX7); test: NEK7-HiBiT degradation assay (Nano-Glo HiBiT Lytic Assay) in HEK293 NEK7-HiBiT cells; format: cell-based; conditions: 24 h, conc. 0.1, 1 and 10 μM tested, concentration of the table values not stated, mean of 3 technical replicates
Sequence of NEK7-HiBiT protein (Q8TDX7 whole entry): as the sequence (Q8TDX7 whole entry) above
Sequence of NEK7-HiBiT protein (Q96SW2 whole entry, further chain): as the sequence (Q96SW2 whole entry) above
Sequence of NEK7-HiBiT protein (Q16531 whole entry partner): as the sequence (Q16531 whole entry partner) above
Description: HEK293 NEK7-HiBiT cells were generated using CRISPR-Cas9 system. HEK293 cells were transformed with pSpCas9-BB-2A-Puro v2.0 plasmid carrying gRNA targeting the N-terminus of NEK7 and ssODN template containing the HiBiT tag sequence with flanking homology sequences. Neon Transfection System (Thermo Fisher Scientific) was used for electroporation. HEK293 NEK7-HiBiT cells were cultured with DMEM Glutamax (Gibco) supplemented with 10% heat inactivated FBS (Gibco). After transfection the culture medium was changed to DMEM Glutamax with 10% heat-inactivated FBS and 1% Penicillin-Streptomycin (Biowest) supplemented with Puromycin (2 μg/ml; Invivogen) for clonal selection. In order to isolate single cell clones for further validation and analysis, limiting dilution cloning in 96-well plates was performed. When the single clones reached confluency, HiBiT Lytic Assay (Promega) was performed in order to identify HiBiT positive clones. The clone selected for further studies was verified and validated using genotyping and HiBiT Blotting (Promega).
Selected clone of HEK293 NEK7-HiBiT cells was maintained in the DMEM-Glutamax medium supplemented with 10% of heat-inactivated FBS (Gibco) and 1% of Penicillin-Streptomycin Solution 100x (Biowest) at 37° C., 5% CO2 and subcultured every 2-3 days.
For Nano-Glo HiBiT Lytic Assay HEK293 NEK7-HiBiT cells were seeded at the density 2×10^3 cells in triplicates in the 40 μL of growth medium per single well on 384 well plate (Greiner Bio-One). Compounds or DMSO were added to treatment plates using Echo555 Liquid Handler and incubated at 37° C., 5% CO2 for 24 hours. After incubation 40 μL of Nano-Glo HiBiT Lytic Reagent (prepared according to the manufacturer protocol) were added to 40 μL of the cell culture medium present in each well. The plate content was briefly mixed (460 rpm) on an orbital shaker to ensure cell lysis. The plate was left at RT protected from light for another 10 min to stabilize the luminescent signal. The luminescence signal was measured using CLARIOstar Multimode Plate Reader. Focus and gain were adjusted to DMSO treated cells. The results were calculated as the NEK7-HiBiT % relative to the DMSO control of 3 technical replicates relative to the DMSO control.
HEK293 NEK7-HiBiT cells were treated with the compounds (conc. 0.1, 1 and 10 μM) or DMSO for 24 h. After incubation with compounds NEK7-HiBiT degradation was measured as a luminescence signal using CLARIOstar Multimode Plate reader.
Additionally, compounds reducing NEK7-HiBiT protein level by >=50% at 0.1 μM, were also identified.

[2] = biological target: T1, [NEK7]-[compound of formula (I)]-[CRBN/DDB1] complex; test: HTRF ternary complex assay; format: binding; conditions: dose-response, 180 min at 25° C.; read-out: HTRF ternary complex Average pEC50 by molecule (converted)
Description: The effect of the molecular glue compounds of the invention on the formation of a ternary complex composed of [NEK7]-[compound of formula (I)]-[CRBN/DDB1] was investigated.
Mix solution of proteins and reagents was prepared: • 24 nM NEK7, 52.8 nM 6×His-CRBN/Strep-DDB1, 3 nM of Streptavidin-Eu cryptate […] and 6.67 nM of Anti-6×his-d2 […] was prepared in PPI Europium detection buffer (Cisbio) with 1 mM DTT.
The tested compounds in dose-response were dispensed onto a white 384-well low volume plate (Greiner, 784075). DMSO was backfilled to all wells, resulting in a final DMSO content of 0.5%. Wells containing only DMSO served as background.
The plate was sealed with transparent film and shaken using a VibroTurbulator for 60 sec at level 3.
The plate was then spun down shortly (10 s, 1000 rcf) and incubated at 25° C. for 180 min.
The read-out was performed with plate reader (Pherastar, BMG Labtech) in time resolved fluorescence mode. Filterset: TR 337 665 620.
The results were analyzed as follows: • 1) an average of fluorescence for background signal was calculated and used as a negative control; • 2) raw fluorescence values for tested compounds were normalized against negative controls; • 3) saturation curve was fitted to specific binding with Hill slope model; • 4) EC50 and pEC50 values were determined.

Row | SMILES | activation at 1 µM [1] [%] | Levels of NEK7-HiBiT Protein (as a % of DMSO control) (NEK7-HiBiT protein) | EC50 [2] [µM]
1 | O=C1CCC(N2Cc3cc(-c4cc(C(F)(F)F)ccn4)ccc3C2=O)C(=O)N1 (stereo not drawn) [26(2), 3-(1-oxo-5-(4-(trifluoromethyl)pyridin-2-yl)isoindolin-2-yl)piperidine-2,6-dione] | 20 to 80 | C (Levels of NEK7-HiBiT Protein > 50% and <75%) | 0.316 to 1
2 | COc1ccnc(-c2ccc3c(c2)CN(C2CCC(=O)NC2=O)C3=O)c1 (stereo not drawn) [27(2), 3-(5-(4-methoxypyridin-2-yl)-1-oxoisoindolin-2-yl)piperidine-2,6-dione] | 20 to 80 | D (Levels of NEK7-HiBiT Protein ≥ 75%) | 0.316 to 1
3 | O=C1CCC(N2C(=O)c3cccc4c(-c5ccccn5)ccc2c34)C(=O)N1 (stereo not drawn) [28(2), 3-(2-oxo-6-(pyridin-2-yl)benzo[cd]indol-1 (2H)-yl)piperidine-2,6-dione] | < 10 | C (Levels of NEK7-HiBiT Protein > 50% and <75%) | > 3.16
4 | O=C1CCCC(N2Cc3cc(-c4ccccn4)ccc3C2=O)C(=O)N1 (stereo not drawn) [29(2), 3-(1-oxo-5-(pyridin-2-yl)isoindolin-2-yl)azepane-2,7-dione] | < 10 | D (Levels of NEK7-HiBiT Protein ≥ 75%) | > 3.16
5 | O=C1CCC(N2Cc3cc(-c4ccccn4)sc3C2=O)C(=O)N1 (stereo not drawn) [30(2), 3-(6-oxo-2-(pyridin-2-yl)-4,6-dihydro-5H-thieno[2,3-c]pyrrol-5-yl)piperidine-2,6-dione] | < 10 | D (Levels of NEK7-HiBiT Protein ≥ 75%) | > 3.16
6 | O=C1CCC(N2Cc3c(csc3-c3ccccn3)C2=O)C(=O)N1 (stereo not drawn) [31(2), 3-(4-oxo-1-(pyridin-2-yl)-4H-thieno[3,4-c]pyrrol-5 (6H)-yl)piperidine-2,6-dione] | < 10 | D (Levels of NEK7-HiBiT Protein ≥ 75%) | > 3.16
7 | O=C1CCC(N2Cc3cc([C@@H]4CCCCN4)ccc3C2=O)C(=O)N1 (stereo partly drawn) [Compound 10, 3-(1-oxo-5-((S)-piperidin-2-yl)isoindolin-2-yl)piperidine-2,6-dione] | 10 to 20 | C (Levels of NEK7-HiBiT Protein > 50% and <75%) | 0.316 to 1
8 | O=C1CCC(N2Cc3cc(C4CCC(NC(=O)c5ccccc5)CN4)ccc3C2=O)C(=O)N1 (stereo not drawn) [Compound 56, N-(6-(2-(2,6-dioxopiperidin-3-yl)-1-oxoisoindolin-5-yl)piperidin-3-yl)benzamide] | > 80 | A (Levels of NEK7-HiBiT Protein ≤ 25%) | < 0.1
9 | O=C1CCC(N2Cc3cc(C4CSCCN4)ccc3C2=O)C(=O)N1 (stereo not drawn) [Compound 57, 3-(1-oxo-5-(thiomorpholin-3-yl)isoindolin-2-yl)piperidine-2,6-dione] | 20 to 80 | C (Levels of NEK7-HiBiT Protein > 50% and <75%) | 0.1 to 0.316

Continued, values first:

Row | activation at 1 µM [1] [%] | Levels of NEK7-HiBiT Protein (as a % of DMSO control) (NEK7-HiBiT protein) | EC50 [2] [µM] | SMILES
10 | 20 to 80 | A (Levels of NEK7-HiBiT Protein ≤ 25%) | 1 to 3.16 | O=C1CCC(N2C(=O)c3ccc(C4CCCCN4)cc3C2=O)C(=O)N1 (stereo not drawn) [Compound 1, 2-(2,6-dioxopiperidin-3-yl)-5-(piperidin-2-yl)isoindoline-1,3-dione]
11 | 20 to 80 | A (Levels of NEK7-HiBiT Protein ≤ 25%) | 0.316 to 1 | O=C1CCC(N2Cc3cc(C4CCCN4)ccc3C2=O)C(=O)N1 (stereo not drawn) [Compound 6, 3-(1-oxo-5-(pyrrolidin-2-yl)isoindolin-2-yl)piperidine-2,6-dione]
12 | > 80 | A (Levels of NEK7-HiBiT Protein ≤ 25%) | 0.316 to 1 | O=C1CCC(N2Cc3cc([C@H]4CCCCN4)ccc3C2=O)C(=O)N1 (stereo partly drawn) [Compound 9, 3-(1-oxo-5-((R)-piperidin-2-yl)isoindolin-2-yl)piperidine-2,6-dione]
13 | < 10 | D (Levels of NEK7-HiBiT Protein ≥ 75%) | > 3.16 | Cc1cc2c(cc1C1CCCCN1)CN(C1CCC(=O)NC1=O)C2=O (stereo not drawn) [Compound 20, 3-(6-methyl-1-oxo-5-(piperidin-2-yl)isoindolin-2-yl)piperidine-2,6-dione]
14 | < 10 | D (Levels of NEK7-HiBiT Protein ≥ 75%) | > 3.16 | Cc1cc(C2CCCCN2)cc2c1C(=O)N(C1CCC(=O)NC1=O)C2 (stereo not drawn) [Compound 21, 3-(7-methyl-1-oxo-5-(piperidin-2-yl)isoindolin-2-yl)piperidine-2,6-dione]
15 | < 10 | A (Levels of NEK7-HiBiT Protein ≤ 25%) | > 3.16 | O=C1CCC(N2Cc3c(ccc(C4CCCCN4)c3F)C2=O)C(=O)N1 (stereo not drawn) [Compound 22, 3-(4-fluoro-1-oxo-5-(piperidin-2-yl)isoindolin-2-yl)piperidine-2,6-dione]
16 | < 10 | D (Levels of NEK7-HiBiT Protein ≥ 75%) | > 3.16 | O=C1CCC(N2Cc3cc(C4CCCCN4)cc(F)c3C2=O)C(=O)N1 (stereo not drawn) [Compound 24, 3-(7-fluoro-1-oxo-5-(piperidin-2-yl)isoindolin-2-yl)piperidine-2,6-dione]
17 | < 10 | D (Levels of NEK7-HiBiT Protein ≥ 75%) | > 3.16 | O=C1CCC(N2Cc3cc(C4CCCC(=O)N4)ccc3C2=O)C(=O)N1 (stereo not drawn) [Compound 42, 3-(1-oxo-5-(6-oxopiperidin-2-yl)isoindolin-2-yl)piperidine-2,6-dione]
